Where two headings read alike, the source gives them in different places.
Assays:
L929 cells = assay: cytotoxicity to L929 cells, MTT assay (viability and replication); assay type: cell-based; parameters: Toxicity, Mean: unit not given here; conditions: L929 cells; for Toxicity, Mean: MTT; for inhibition at 0.1 µM / inhibition at 1 µM / inhibition at 10 µM / inhibition at 50 µM: Mus musculus, read-out: Toxicity, % of control (inhibition)
Method: Toxoplasma gondii is the causative agent of cerebral toxoplasmic encephalitis, an AIDS-related opportunistic infection. The biological activity of the endoperoxide JHU 2886 of the present invention was measured against Toxoplasma gondii cultured in L929 cells.
More specifically, the cytotoxicity of synthetic organic endoperoxide JHU 2886 was tested in L929 cells by measuring the viability and replication of exposed cells. The cytotoxicity of the compound to the cultured cells was measured using the MTT assay (Promega kit), according to the procedure of Carmichael et al. (18). MTT is an abbreviation for [3-(4,5-dimethylthiazol-2-yl)-2,5-dephenyltetrazolium bromide].
This compound is referred to as JHU 2886 in Table 1. In this experiment atovaquone and artemisinin were used as positive controls. Atovaquone is a broad-spectrum anti-infective drug having antimalarial and antitoxoplasmosis activity (19).
^1 The cytotoxicity of each compound for the cultured cells was
measured using the MTT assay (Promega kit) and inhibition of the […]

Toxoplasma gondii = assay: inhibition of intracellular replication of T. gondii in infected L929 cells, uracil incorporation assay; assay type: cell-based; parameters: Activity, Mean: unit not given here; conditions: for Activity, Mean: uracil incorporation; for inhibition at 0.1 µM / inhibition at 1 µM / inhibition at 10 µM / inhibition at 50 µM: Toxoplasma gondii, L929, read-out: Activity, % of control (inhibition)
Method: Toxoplasma gondii is the causative agent of cerebral toxoplasmic encephalitis, an AIDS-related opportunistic infection. The biological activity of the endoperoxide JHU 2886 of the present invention was measured against Toxoplasma gondii cultured in L929 cells. The inhibitory activity of the synthetic organic endoperoxide was tested by measuring the intracellular replication of T. gondii in infected L929 cells. The inhibition of the intracellular replication of T. gondii was determined using the uracil incorporation assay (20). […] This compound is referred to as JHU 2886 in Table 1. In this experiment atovaquone and artemisinin were used as positive controls. Atovaquone is a broad-spectrum anti-infective drug having antimalarial and antitoxoplasmosis activity (19). | measured using the MTT assay (Promega kit) and inhibition of the | intracellular replication of T. gondii was determined using the uracil | incorporation assay.

SMILES: O=C1C(O)=C([C@H]2CC[C@H](c3ccc(Cl)cc3)CC2)C(=O)c2ccccc21 [Atovaquone]
- Toxicity, Score (L929 cells; 24 hours, dose 0.1 μM): 1 (≤20%)
- Toxicity, Mean (L929 cells; 24 hours, dose 0.1 μM): 0.095
- Toxicity, Score (L929 cells; 24 hours, dose 1.0 μM): 1 (≤20%)
- Toxicity, Mean (L929 cells; 24 hours, dose 1.0 μM): 0.093
- Toxicity, Score (L929 cells; 24 hours, dose 10.0 μM): 1 (≤20%)
- Toxicity, Mean (L929 cells; 24 hours, dose 10.0 μM): 0.092
- Toxicity, Score (L929 cells; 24 hours, dose 50.0 μM): 2 (>20%-≤40%)
- Toxicity, Mean (L929 cells; 24 hours, dose 50.0 μM): 0.089
- Toxicity, Score (L929 cells; 48 hours, dose 0.1 μM): 0
- Toxicity, Mean (L929 cells; 48 hours, dose 0.1 μM): 0.214
- Toxicity, Score (L929 cells; 48 hours, dose 1.0 μM): 1 (≤20%)
- Toxicity, Mean (L929 cells; 48 hours, dose 1.0 μM): 0.211
- Toxicity, Score (L929 cells; 48 hours, dose 10.0 μM): 1 (≤20%)
- Toxicity, Mean (L929 cells; 48 hours, dose 10.0 μM): 0.204
- Toxicity, Score (L929 cells; 48 hours, dose 50.0 μM): 3 (>40%-≤70%)
- Toxicity, Mean (L929 cells; 48 hours, dose 50.0 μM): 0.106
- Toxicity, Score (L929 cells; 72 hours, dose 0.1 μM): 0
- Toxicity, Mean (L929 cells; 72 hours, dose 0.1 μM): 0.473
- Toxicity, Score (L929 cells; 72 hours, dose 1.0 μM): 0
- Toxicity, Mean (L929 cells; 72 hours, dose 1.0 μM): 0.464
- Toxicity, Score (L929 cells; 72 hours, dose 10.0 μM): 0
- Toxicity, Mean (L929 cells; 72 hours, dose 10.0 μM): 0.456
- Toxicity, Score (L929 cells; 72 hours, dose 50.0 μM): 3 (>40%-≤70%)
- Toxicity, Mean (L929 cells; 72 hours, dose 50.0 μM): 0.161
- inhibition at 0.1 µM (L929 cells; 24 hours, dose 0.1 μM): 15.6%
- inhibition at 1 µM (L929 cells; 24 hours, dose 1.0 μM): 17.4%
- inhibition at 10 µM (L929 cells; 24 hours, dose 10.0 μM): 18.3%
- inhibition at 50 µM (L929 cells; 24 hours, dose 50.0 μM): 21.2%
- inhibition at 0.1 µM (L929 cells; 48 hours, dose 0.1 μM): 0%
- inhibition at 1 µM (L929 cells; 48 hours, dose 1.0 μM): 1.09%
- inhibition at 10 µM (L929 cells; 48 hours, dose 10.0 μM): 4.53%
- inhibition at 50 µM (L929 cells; 48 hours, dose 50.0 μM): 50.2%
- inhibition at 0.1 µM (L929 cells; 72 hours, dose 0.1 μM): 0%
- inhibition at 1 µM (L929 cells; 72 hours, dose 1.0 μM): 0%
- inhibition at 10 µM (L929 cells; 72 hours, dose 10.0 μM): 0%
- inhibition at 50 µM (L929 cells; 72 hours, dose 50.0 μM): 63.2%
- therapeutic index (ratio of activity to toxicity), quotient (Toxoplasma gondii; 1 μM, T. gondii activity / L929 toxicity): 5.6
- Activity, Score (Toxoplasma gondii; 24 hours, dose 0.1 μM): 4 (>70%-≤90%)
- Activity, Mean (Toxoplasma gondii; 24 hours, dose 0.1 μM): 3096
- Activity, Score (Toxoplasma gondii; 24 hours, dose 1.0 μM): 5 (>90%)
- Activity, Mean (Toxoplasma gondii; 24 hours, dose 1.0 μM): 693
- Activity, Score (Toxoplasma gondii; 24 hours, dose 10.0 μM): 5 (>90%)
- Activity, Mean (Toxoplasma gondii; 24 hours, dose 10.0 μM): 612
- Activity, Score (Toxoplasma gondii; 24 hours, dose 50.0 μM): 5 (>90%)
- Activity, Mean (Toxoplasma gondii; 24 hours, dose 50.0 μM): 1042
- Activity, Score (Toxoplasma gondii; 48 hours, dose 0.1 μM): 3 (>40%-≤70%)
- Activity, Mean (Toxoplasma gondii; 48 hours, dose 0.1 μM): 6865
- Activity, Score (Toxoplasma gondii; 48 hours, dose 1.0 μM): 5 (>90%)
- Activity, Mean (Toxoplasma gondii; 48 hours, dose 1.0 μM): 729
- Activity, Score (Toxoplasma gondii; 48 hours, dose 10.0 μM): 5 (>90%)
- Activity, Mean (Toxoplasma gondii; 48 hours, dose 10.0 μM): 399
- Activity, Score (Toxoplasma gondii; 48 hours, dose 50.0 μM): 5 (>90%)
- Activity, Mean (Toxoplasma gondii; 48 hours, dose 50.0 μM): 236
- Activity, Score (Toxoplasma gondii; 72 hours, dose 0.1 μM): 3 (>40%-≤70%)
- Activity, Mean (Toxoplasma gondii; 72 hours, dose 0.1 μM): 2940
- Activity, Score (Toxoplasma gondii; 72 hours, dose 1.0 μM): 4 (>70%-≤90%)
- Activity, Mean (Toxoplasma gondii; 72 hours, dose 1.0 μM): 1272
- Activity, Score (Toxoplasma gondii; 72 hours, dose 10.0 μM): 5 (>90%)
- Activity, Mean (Toxoplasma gondii; 72 hours, dose 10.0 μM): 446
- Activity, Score (Toxoplasma gondii; 72 hours, dose 50.0 μM): 5 (>90%)
- Activity, Mean (Toxoplasma gondii; 72 hours, dose 50.0 μM): 230
- inhibition at 0.1 µM (Toxoplasma gondii; 24 hours, dose 0.1 μM): 78.4%
- inhibition at 1 µM (Toxoplasma gondii; 24 hours, dose 1.0 μM): 95.2%
- inhibition at 10 µM (Toxoplasma gondii; 24 hours, dose 10.0 μM): 95.7%
- inhibition at 50 µM (Toxoplasma gondii; 24 hours, dose 50.0 μM): 92.7%
- inhibition at 0.1 µM (Toxoplasma gondii; 48 hours, dose 0.1 μM): 60.1%
- inhibition at 1 µM (Toxoplasma gondii; 48 hours, dose 1.0 μM): 95.8%
- inhibition at 10 µM (Toxoplasma gondii; 48 hours, dose 10.0 μM): 97.7%
- inhibition at 50 µM (Toxoplasma gondii; 48 hours, dose 50.0 μM): 98.6%
- inhibition at 10 µM (Toxoplasma gondii; 72 hours, dose 10.0 μM): 93.8%
- inhibition at 50 µM (Toxoplasma gondii; 72 hours, dose 50.0 μM): 96.8%
